Laboratory results taken from patent publication US6706764B2, “Use of creatine or creatine analogs for the treatment of diseases of the nervous system” (Avicena Group, Inc., priority 1994, dated 2004).

Assays:
[1] = compared with phosphocreatine; cited from earlier work
MPTP toxicity = MPTP toxicity in mice, earlier work of the inventors; type: in vivo
Description: This metabolite is formed by the activity of monoamine oxidase on MPTP. Inhibitors of monoamine oxidase block the neurotoxicity of MPTP in both mice and primates. The specificity of the neurotoxic effects of MPP^+ for dopaminergic neurons appears to be due to the uptake of MPP^+ by the synaptic dopamine transporter. Blockers of this transporter prevent MPP^+ neurotoxicity. […] It binds to complex I at the retenone binding site. […] In vivo studies have shown that MPTP can deplete striatal ATP concentrations in mice.

[2] = tested on: malonate striatal excitotoxic lesions; conditions: cited from earlier work; for protection against lesions in the malonate animal model: intrastriatal malonate; for ATP depletion produced by malonate in vivo: rat
[3] = tested on: malonate induced striatal lesions; test: Malonate induced striatal lesions, model for Huntington's disease; type: in vivo, rats
Description: We initially examined whether oral administration of creatine or its analogue cyclocreatine could attenuate malonate lesions. Creatine was administered orally to rats in their feed at doses of 0.25-3.0% of the diet. Cyclocreatine was administered at 0.2-1.0%. Controls received unsupplemented otherwise identical diets. The compounds were administered for two weeks prior to the administration of malonate and then for a further week prior to sacrifice. Malonate was dissolved in distilled deionized water and the pH wad adjusted to 7.4 with 0.1 m HCI. Intrastriatal injections of 1.5 ul of malonate containing 3 μmol were made into the striatum at the level of the Bregma 2.4 mm lateral to the midline and 4.5 mm ventral to the dura. Animals were sacrificed at 7 days by decapitation, and the brains were quickly removed and placed in ice cold 0.9% saline solution. Brains were sectioned at 2 mm intervals. Slices were then placed posterior side down in 2% 2,3,5-triphenyltetrazolium chloride. Slices were stained in the dark at room temperature for 30 minutes and then removed and placed in 4% paraformaldehyde, pH 7.3. Lesions, noted by pale staining, were evaluated on the posterior surface of each section using a Bioquant 4 system by an experienced histologist blinded to experimental conditions. These measurements have been validated by comparing them to measurements obtained on adjacent Nissl stain sections.

[4] = tested on: MPTP induced dopaminiergic toxicity; test: MPTP model for Parkinson's disease, striatal dopamine, DOPAC and HVA by HPLC; type: in vivo, male Swiss Webster mice; conditions: for neuroprotection against dopamine depletions: dose response
Description: The effect of two representative creatine compounds, creatine and cyclocreatine, were evaluated using this model. Creatine and cyclocreatine were administered in the initial pilot experiment as 1% formulation in the feed of animals, and was administered for three weeks before MPTP treatment. MPTP was administered intraperitoneally at a dose of 15 mg/kg every 2 hours for five injections. The animals then remained on either creatine or cyclocreaine supplemented diets for 1 week before sacrifice. The mice examined were male Swiss Webster mice weighing 30-35 grams obtained from Taconic Farms. Control groups recieved either normal saline or MPTP hydrochloride alone. MPTP was administered in 0.1 ml of water. The MPTP was obtained from Research Biochemicals. Eight to twelve animals were examined in each group. Following sacrifice the two striata were rapidly dissected and placed in chilled 0.1 M perchloric acid. Tissue was subsequently sonicated, and aliquots were taken for protein quantification using a fluorometer assay. Dopamine, 3,4-dihydroxyphenylacetic acid (DOPAC), and homovanillic acid (HVA) were quantified by HPLC with 16 electrode electrochemical detection. Concentrations of dopamine and metabolites were expressed as nmol/mg protein. The statistical significance of differences was determined by one-way ANOVA followed by Fisher PLSDpost-hoc test to compare group means.
A dose response study was conducted where the creatine dose was 0.25%-3.0% of the diet and cyclocreatine 0.25-1.0% of the diet.

[5] = fed to mice, rats and chicks; cited from earlier work
[6] = mice, up to 1% of diet for 2 weeks or for over 4 weeks; cited from earlier work
[7] = cited from earlier work
viral infections = conditions: 1% dietary; cited from earlier work
creatine kinase [8] = conditions: forward reaction, both in vitro and in vivo; cited from earlier work
[9] = cited from earlier work; remark: listed apart in the source
creatine kinase [10] = conditions: cited from earlier work
[11] = intravenous injection, up to 8 grams/day, patients with cardiac diseases; cited from earlier work
[12] = pilot, 1% in feed, oral, FIG. 4

For “3-phosphoryl-1-carboxymethyl-2-iminoimidazolidine [cyclocreatine phosphate]”, the “stability of the P-N bond” value [1] is listed as “more stable than that of phosphocreatine”.
In the case of `COC1=C(OC)C(=O)C(C/C=C(\C)CC/C=C(\C)CC/C=C(\C)CC/C=C(\C)CC/C=C(\C)CC/C=C(\C)CC/C=C(\C)CC/C=C(\C)CC/C=C(\C)CCC=C(C)C)=C(C)C1=O` [Q10, coenzyme Q10], the “protection against MPTP toxicity” value (MPTP toxicity) is given as “significantly protect”, the “protection against lesions in the malonate animal model” value (“protection against lesions” for short) [2] is given as “dose dependent protection” and the “ATP depletion produced by malonate in vivo” value [2] is given as “attenuated”.
With `NC1=NCCN1CC(=O)O` [cyclocreatine, 1-carboxymethyl-2-iminoimidazolidine] the “neuroprotection against malonate induced striatal lesions” value ([3]; dose of 1% in the diet, FIG. 2) was “significant”, the “neuroprotection against malonate induced striatal lesions, dose response” value ([3]; increasing doses in the diet: creatine 0.25-3%, cyclocreatine 0.2-1.0%, FIG. 2) was “dose dependent neuroprotective effects” and the “protection against striatal malonate lesions (lesion volume)” value ([3]; initial pilot experiment, oral supplementation in feed, FIG. 1) was “protected against striatal malonate lesions”. For the same molecule, the “protection against HVA depletion” value ([4]; 0.5% of the diet, FIG. 5) was “not seen”, the “effect on 3-4-dihydroxyphenyl acetic acid (DOPAC)” value ([4]; dose response study, FIG. 5) was “neuroprotection effects” and the “effect on homovanillic acid (HVA)” value ([4]; dose response study, FIG. 5) was “neuroprotection effects”. The “neuroprotection against dopamine depletions” value ([4]; 0.5% of the diet, FIG. 5) was “significant protection”, the “neuroprotection against dopamine depletions” value ([4]; 1.0% of the diet, FIG. 5) was “significant protection” and the “effect against MPTP induced depletions of homovanillic acid” value [4, 12] was “effective”. The “neuroprotection against MPTP induced dopamine depletions” value [4, 12] was “significant neuroprotection”, the “neuroprotective effect compared with creatine” value [4, 12] was “greater than that seen with creatine alone” and the “protection against DOPAC depletions induced by MPTP” value [4, 12] was “significantly protected”. The tolerability [5] was “well-tolerated”, the gross adverse effects [6] was “without gross adverse effects” and the “accumulation in different organs” value ([7]; feeding animals e.g. 1% dietary) was “mM concentrations”. The tissue uptake ([7]; rats receiving dietary 1%) was “taken up by muscle, heart and brain”, the antiviral activity (viral infections) was “observed” and the “phosphorylation by creatine kinase” value (creatine kinase [8]) was “phosphorylated efficiently”. The growth ([9]; in vivo) was “grew more slowly than control chicks” and the mortality ([9]; newly hatched chicks, diet containing 1%, in the presence of antibiotics) was “without significant mortality”.
In the case of `N=C(N)N(CC(=O)O)CC1CO1` (stereo not shown) [epoxycreatine], the “inactivation of creatine kinase” value (creatine kinase [10]) is given as “completely and irreversibly inactivate”.
For `Nc1nnc(-c2cccc(Cl)c2Cl)c(N)n1` [lamotrigine], the “protection against lesions” value [2] is given as “attenuates the lesions”.
In the case of `NC(=O)c1cccnc1` [nicotinimide], the “protection against lesions” value [2] is listed as “dose dependent protection” and the “ATP depletion produced by malonate in vivo” value [2] is listed as “attenuated”.
In the case of `O=C(O)CCC(=O)O` [succinate], the “malonate lesions on co-injection” value ([2]; co-injection with malonate) is listed as “blocks the lesions”.
In the case of “N-phosphoryl creatine [creatine phosphate]”, the adverse side effects [11] is listed as “no adverse side effects”.
For isoepoxycreatine, the “inactivation of creatine kinase” value (creatine kinase [10]) is given as “completely and irreversibly inactivate”.
